Experimental data reported in ChEMBL document CHEMBL1148300, “Synthesis and evaluation of oxazaborolidines for antibacterial activity against Streptococcus mutans” (2004).
≈ marks a conversion by molar mass, not a printed value.

Tested on: Streptococcus mutans
Test: Minimal Inhibitory Concentration ofcompound against Streptococcus mutans
Type: functional

| Compound | MIC [mM] |
| --- | --- |
| c1ccc([B-]23OCC[NH+]2CCO3)cc1 (stereo not drawn) | 6.75 (≈ 1290 µg/mL) |
| CCCC[B-]12OCC[NH+]1CCO2 (stereo not drawn) | 6.75 (≈ 1150 µg/mL) |
| CCCCB1NC(C)(C)CO1 | 3.38 (≈ 524 µg/mL) |
| CC1(C)COB(c2ccccc2)N1 | 6 (≈ 1050 µg/mL) |
| CC1C(c2ccccc2)OB(c2ccccc2)N1C (stereo not drawn) | 1.55 (≈ 389 µg/mL) |

Further lines, results first:

| MIC [mM] | Compound |
| --- | --- |
| 2.83 (≈ 614 µg/mL) | CCCCB1NC(C)C(c2ccccc2)O1 (stereo not drawn) |
| 1.33 (≈ 315 µg/mL) | CC1NB(c2ccccc2)OC1c1ccccc1 (stereo not drawn) |
| 0.53 (≈ 123 µg/mL) | CCCCB1OC(c2ccccc2)C(C)N1C (stereo not drawn) |
